Experimental data taken from PubChem BioAssay AID852 (PCMD, 2007).

What follows are compounds tested against Coagulation factor XII (Homo sapiens) (UniProt P00748) (assay: human FXIIa protease inhibitors, dose response, biochemical, confirmation of 1536-well hits (AID 852)). Conditions: purified human plasma FXIIa, fluorogenic AMC substrate, 384-well, 2 h; call rule not given here.
Sequence of Coagulation factor XII (Homo sapiens) (P00748 20-372 limits assumed): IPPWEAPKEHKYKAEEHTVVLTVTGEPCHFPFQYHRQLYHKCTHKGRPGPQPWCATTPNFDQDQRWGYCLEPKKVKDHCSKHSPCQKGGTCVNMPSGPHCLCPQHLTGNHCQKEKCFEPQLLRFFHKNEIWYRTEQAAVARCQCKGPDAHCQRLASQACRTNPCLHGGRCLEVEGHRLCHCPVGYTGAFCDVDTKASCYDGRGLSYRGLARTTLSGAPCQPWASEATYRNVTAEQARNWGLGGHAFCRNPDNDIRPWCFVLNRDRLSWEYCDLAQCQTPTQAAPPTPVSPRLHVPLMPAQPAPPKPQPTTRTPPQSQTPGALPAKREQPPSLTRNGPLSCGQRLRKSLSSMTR
Sequence of Coagulation factor XII (Homo sapiens) (P00748 373-615 limits assumed): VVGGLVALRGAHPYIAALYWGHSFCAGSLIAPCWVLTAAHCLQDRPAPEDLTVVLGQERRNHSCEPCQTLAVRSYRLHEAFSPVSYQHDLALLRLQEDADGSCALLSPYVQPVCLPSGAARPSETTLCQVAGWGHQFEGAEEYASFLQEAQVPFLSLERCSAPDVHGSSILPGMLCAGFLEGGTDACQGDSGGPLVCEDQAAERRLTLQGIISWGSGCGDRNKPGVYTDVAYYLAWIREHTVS

IC50, active:
O=C(Oc1ccc(Cl)c2cccnc12)c1ccco1 21.6 µM
Cc1ccc(C(=O)n2nc(-c3cccnc3)nc2N)cc1 0.796 µM
O=C(Oc1ccc2c3c(c(=O)oc2c1)CCC3)c1ccco1 6.22 µM
